Patent US4137318A, “N-(phenylalkylamino-alkyl)-dihydroisoquinolinones, pharmaceutical compositions and methods employing them” (Boehringer Ingelheim GmbH, priority 1976, dated 1979)

Columns and labels:
[1] = system: heart rate; assay: Bradycardiac test: effect of test compound on the heart rate of anesthetized cats; assay type: in vivo
Method: The effect of the test compound on the heart rate was tested at various dosage levels on 2-4 cats of both sexes per dose. The average body weight of the cats was 2.5-3.5 kg. For this purpose the animals were anesthetized with nembutal (30 mgm/kg i.p.) and chloralose-urethane (40 mgm/ml chloralose + 200 mgm/ml urethane as required). The test compound in aqueous solution was injected into the Vena saphena (i.v.) or duodenum (i.p.).
The heart rate was registered before and after administration of the test compound on a Grass-polygraph by means of a Grass-tachograph from the electrocardiogram (precordial lead).

[2] = LD50 in mice, i.v., observation time of 14 days; conditions: mouse, in vivo, iv, observation time of 14 days
Description: Additionally, it should be noted that at all dosage levels the test compounds were tolerated very well and produced no toxic side-effects.

Row | SMILES | Duration of effective action ([1]; 0.1 mgm/kg i.v.) [min] | Duration of effective action ([1]; 0.3 mgm/kg i.v.) [min] | Duration of effective action ([1]; 1.0 mgm/kg i.v.) [min] | Duration of effective action ([1]; 3.0 mgm/kg i.d.) [min] | Duration of effective action ([1]; 10.0 mgm/kg i.v.) [min] | Duration of effective action ([1]; 30.0 mgm/kg i.d.) [min] | LD50 at 336 h [2] [mg/kg] | Duration of effective action ([1]; 2.0 mgm/kg i.v.) [min] | Duration of effective action ([1]; 3.0 mgm/kg i.v.) [min]
1 | COc1ccc(CCN(C)CCCN2CCc3cc(OC)c(OC)cc3C2=O)cc1OC.Cl [A, 1-[6,7-dimethoxy-3,4-dihydro-2H-isoquinolin-1-one-2-yl]-3-[N-methyl-N-(2-(3,4-dimethoxy-phenyl)-ethyl)-amino] propane hydrochloride] | 30 | 30 | 50 | 60 | 70 | 60 | 53 | – | –
2 | COc1ccc(CCNCCCN2CCc3cc(OC)c(OC)cc3C2=O)cc1OC.Cl [B, 1-[6,7-dimethoxy-3,4-dihydro-2H-isoquinolin-1-one-2-yl]-3-[N-(2-(3,4-dimethoxy-phenyl)-ethyl)-amino] propane hydrochloride] | – | 22 | 17 | – | – | – | – | 43 | –
3 | COc1ccc(CCN(C)CCCN2CC(C)(C)c3cc(OC)c(OC)cc3C2=O)cc1OC.Cl [C, 1-[4,4-dimethyl-6,7-dimethoxy-3,4-dihydro-2H-isoquinolin-1-one-2-yl]-3-[N-methyl-N-(2-(3,4-dimethoxy-phenyl)-ethyl)-amino]-propane hydrochloride] | – | 8 | 11 | – | – | – | – | – | 18
4 | COc1ccc(CCNCCCN2CC(C)(C)c3cc(OC)c(OC)cc3C2=O)cc1OC.Cl [D, 1-[4,4-dimethyl-6,7-dimethoxy-3,4-dihydro-2H-isoquinolin-1-one-2-yl]-3-[N-(2-(3,4-dimethoxy-phenyl)-ethyl)-amino]-propane hydrochloride] | – | – | 6 | – | – | – | – | – | 16
5 | COc1ccc(CCN(C)CCCN2CCCc3cc(OC)c(OC)cc3C2=O)cc1OC.Cl [E, 1-[7,8-dimethoxy-1,2,3,4-tetrahydro-5H-2-benzazepin-1-one-2-yl]-3-[N-methyl-N-(2-(3,4-dimethoxy-phenyl)-ethyl)-amino]-propane hydrochloride] | – | – | 30 | – | – | – | – | 20 | –
